Measurements: US5710174A, “Factor XIIIA inhibitor” (Zymo Genetics, Inc., priority 1995, dated 1998)

Columns and labels:
[1] = Solubility in ethanol / DMSO; type: physicochemical
plasma clots = experiment: Plasma clot lysis assay; design: species or system human; details: 100 μM; for % Plasma Clot lysis: clots formed about 20 h, plasminogen and urokinase about 4 h
Method: For this assay, 50 μl of one of a series of concentrations of iodoacetic acid, cerulenin, or ZG-1400a was added to 0.5 ml human citrated plasma (prepared from one blood donor) in 5 ml polypropylene tubes. The ZG-1400a and iodoacetic acid were individually prepared in 10% DMSO and tested using half-log dilutions, starting at a final assay concentration of 100 μM and diluting to 10 μM. Cerulenin was prepared in 10% ethanol and tested using half-log dilutions, starting at a final assay concentration of 100 μM and diluting to 10 μM.
Approximately 10^6 cpm ^125 I-fibrinogen (Amersham), 50 mM CaCl2 (20 mM above citrate concentration) and 5 units thrombin (bovine, Enzyme Research Labs) were added to each test and control tube. The tubes were incubated while rocking for 20 h at 37° C. Plasma clots formed in the tubes were washed three times with about 1 ml phosphate buffered saline (PBS). The plasma clots in each tube were counted after the PBS washes.
Approximately 2 ml of 50 mM Tris, pH 7.4, containing 50 mM NaCl, 28 μg plasminogen (human, Calbiochem), and 280 ng urokinase (human, Calbiochem) were added to the clots in test and control tubes. At 1, 2, and 4 h intervals, 25 μl aliquots of the samples were removed from each tube and counted.
The values shown in Table 3 represent the amount of lysis after plasma clots were formed for about 20 h and exposed to plasminogen and urokinase for about 4 h.

Factor Xa (FXa) = experiment: Factor Xa inhibition assay; type: biochemical; details: up to 100 μM, absorbance at 405 nm
Method: (§1) For the FVIIa, FXa and thrombin inhibition assays described below, an inhibition assay buffer containing 50 mM Tris, 5 mM CaCl2, 150 mM NaCl, 0.1% Tween 20, and 0.1% BSA (albumin, bovine, Sigma fraction V (Sigma)) at about pH 8.0 was used 2. For each of the inhibition assays, the total reaction volume was 100 μl and the assays were performed in 96-well plates.
(§2) About 30 μl inhibition assay buffer, 50 μl of 10 nM FXa and 10 μl of one of a series of dilutions of ZG-1400a were added to plate wells. The ZG-1400a was prepared in 10% DMSO and tested using half-log dilutions, starting at a final assay concentration of 100 μM and diluting to 1 nM. A negative (no inhibition) control contained 30 μl inhibition assay buffer, 50 μl of 10 nM FXa, and enough DMSO to give a 1% final DMSO concentration.
The test and control wells were incubated for about 10 min at room temperature. After the incubation period, 10 mM N-α-benzyloxycarbonyl-D-arginine-L-glycyl-L-arginyl-p-nitroanilide-dihydrochloride (S2765 substrate, Kabi) was added to each well.
(§3) This determination was made by reading absorbance at 405 nm on a ThermoMax microplate reader.

thrombin = experiment: Thrombin inhibition assay; type: biochemical, bovine; details: up to 100 μM, absorbance at 405 nm
Method: as §1
as §2, with “2 μg/ml thrombin (bovine, Enzyme Research Labs),” for “10 nM FXa”, “2 μg/ml thrombin,” for “10 nM FXa,”
The test and control wells were incubated for about 10 min at room temperature. After the incubation period, 20 μl of 1 mM SPECTROZYME TH (H-D-hexahydrotyrosyl-L-alanyl-L-arginine-p-nitroanilide-diacetate salt, American Diagnostica, Inc., New York, N.Y.) was added to each well.
as §3

Factor IX (FIX) = experiment: Factor IX inhibition assay; type: biochemical; details: up to 100 μM, absorbance at 405 nm
Method: 60 μl buffer, 10 μl of 40 nM FIX, and 10 μl of one of a series of dilutions of ZG-1400a were added to plate wells. The buffer contained 150 mM NaCl, 5 mM CaCl2, 25 mM Tris, pH 8.0, and 0.1% polyethyleneglycol (PEG). The ZG-1400a was prepared in 10% DMSO and tested using half-log dilutions, starting at a final assay concentration of 100 μM and diluting to 1 nM. A negative (no inhibition) control contained 60 μl buffer, 10 μl of 40 nM FIX, and enough DMSO to give a 1% final DMSO concentration.
The test and control wells were incubated approximately 10 min at room temperature. After incubation, approximately 10 μl of a mixture containing 200 nM FX (Walt Kiesel, University of New Mexico), 500 pM FVIII (Novo Nordisk) and 10 μM PCPS (phosphatidylcholine:phosphatidylserine (Sigma) in a 1:1 ratio) was added to each well. Then 10 μl of 1 mM S2765 substrate (Kabi) was added to each well.
In this assay, FIX converts FX to FXa. […] This determination was made by reading absorbance at 405 nm on a ThermoMax microplate reader.

FVIIa = FVIIa inhibition assay; type: biochemical; details: up to 100 μM, absorbance at 405 nm
Method: as §1
For the FVIIa inhibition assay, about 30 μl of inhibition assay buffer, 25 μl of 20 nM recombinant FVIIa (Walt Kiesel, University of New Mexico), and 10 μl of one of a series of dilutions of ZG-1400a were added to plate wells. The ZG-1400a was prepared in 10% DMSO and tested using half-log dilutions, starting at a final assay concentration of 100 μM and diluting to 1 nM. A negative (no inhibition) control contained 30 μl inhibition assay buffer, 25 μl of 20 nM FVIIa, and enough DMSO to give a 1% final DMSO concentration.
The test and control wells were incubated for about 10 min at room temperature. After incubation, 25 μl of 20 nM tissue factor (Walt Kiesel, University of New Mexico) was added to the wells and incubated for a second 10 min period at room temperature. […]
as §3

## CC=CCC=CCCC(=O)C1OC1C(N)=O (stereo not drawn) [Cerulenin, 2,3-epoxy-4-oxo-7,10-dodecadienamide]
[1]
  solubility: soluble in ethanol, but not DMSO
Plasma clots
  susceptibility of plasma clots to lysis by plasminogen and urokinase: significantly more susceptible to lysis
  % Plasma Clot lysis: 97%

## C[C@@H]1CCC/C=C\C(=O)Cc2cc(O)cc(O)c2C(=O)O1 [ZG-1400, R(-) enantiomer of cis-resorcylide]
Factor Xa (FXa)
  inhibition of FXa activity: not even the highest concentration of ZG-1400a assayed (100 μM) inhibited FXa activity
Plasma clots
  susceptibility of plasma clots to lysis by plasminogen and urokinase: significantly more susceptible to lysis
  % Plasma Clot lysis: 46%
thrombin
  inhibition of thrombin activity: not even the highest concentration of ZG-1400a assayed (100 μM) inhibited thrombin activity
Factor IX (FIX)
  inhibition of FIX activity: Not even the highest concentration of ZG-1400a assayed (100 μM) inhibited FIX activity
FVIIa
  inhibition of FVIIa activity: not even the highest concentration of ZG-1400a assayed (100 μM) inhibited FVIIa activity
